According to article PMC6931042 (Bioorganic chemistry, 2018):
Like-named read-outs stand apart in the source and are kept apart here.

Assays:
[1] = test system: KM12; assay: NCI in vitro five dose anticancer assay; type: cell-based, human
[2] = test system: NCI 60 cell lines; assay: NCI single dose; type: cell-based, human; conditions: 48 h
[3] = test system: SR; assay: NCI in vitro five dose anticancer assay; type: cell-based, human
[4] = test system: ACHN; assay: NCI in vitro five dose anticancer assay; type: cell-based, human
[5] = test system: MDA-MB-435; assay: NCI in vitro five dose anticancer assay; type: cell-based, human
[6] = test system: MCF7; assay: NCI in vitro five dose anticancer assay; type: cell-based, human
[7] = test system: HCT-15; assay: NCI in vitro five dose anticancer assay; type: cell-based, human
[8] = test system: NCI-H23; assay: NCI in vitro five dose anticancer assay; type: cell-based, human
[9] = test system: NCI/ADR-RES; assay: NCI in vitro five dose anticancer assay; type: cell-based, human
[10] = test system: HOP-92; assay: NCI in vitro five dose anticancer assay; type: cell-based, human
[11] = test system: A549/ATCC; assay: NCI in vitro five dose anticancer assay; type: cell-based, human
[12] = test system: SK-MEL-28; assay: NCI in vitro five dose anticancer assay; type: cell-based, human
[13] = target: PI3K-β (Homo sapiens, UniProt P42338); assay: PI3K biochemical assay
[14] = test system: OVCAR-8; assay: NCI in vitro five dose anticancer assay; type: cell-based, human
[15] = test system: OVCAR-4; assay: NCI in vitro five dose anticancer assay; type: cell-based, human
[16] = test system: LOX IMVI; assay: NCI in vitro five dose anticancer assay; type: cell-based, human
[17] = test system: UACC-257; assay: NCI in vitro five dose anticancer assay; type: cell-based, human
[18] = test system: NCI-H522; assay: NCI in vitro five dose anticancer assay; type: cell-based, human
[19] = test system: MOLT-4; assay: NCI in vitro five dose anticancer assay; type: cell-based, human
[20] = test system: COLO 205; assay: NCI in vitro five dose anticancer assay; type: cell-based, human
[21] = test system: 786–0; assay: NCI in vitro five dose anticancer assay; type: cell-based, human
[22] = test system: SF-539; assay: NCI in vitro five dose anticancer assay; type: cell-based, human
[23] = test system: HCC-2998; assay: NCI in vitro five dose anticancer assay; type: cell-based, human
[24] = test system: p53, p21, cyclin B1 and Cdc2 in A549 cells; assay: Western blotting, p53 and cell cycle regulators; type: cell-based, human; conditions: 1, 3 and 6 μM, western blot; for expression of Cdc2 / expression of cyclin B1 / expression of p21: dose dependent
[25] = test system: OVCAR-5; assay: NCI in vitro five dose anticancer assay; type: cell-based, human
[26] = test system: SK-MEL-2; assay: NCI in vitro five dose anticancer assay; type: cell-based, human
[27] = test system: U251; assay: NCI in vitro five dose anticancer assay; type: cell-based, human
[28] = test system: EKVX; assay: NCI in vitro five dose anticancer assay; type: cell-based, human
[29] = test system: NCI-H322M; assay: NCI in vitro five dose anticancer assay; type: cell-based, human
[30] = test system: MDA-MB231/ATCC; assay: NCI in vitro five dose anticancer assay; type: cell-based, human
[31] = target: class I PI3K enzymes; assay: PI3K biochemical assay, all isoforms stated jointly; conditions: read-out: IC50s against the different PI3K isoforms; range over PI3K-α, β, γ, δ
[32] = test system: NCI-H460; assay: NCI in vitro five dose anticancer assay; type: cell-based, human
[33] = test system: SW-620; assay: NCI in vitro five dose anticancer assay; type: cell-based, human
[34] = test system: A549 cells; assay: Cell cycle analysis by flow cytometry; type: cell-based, human; conditions: 24 h
[35] = test system: TK-10; assay: NCI in vitro five dose anticancer assay; type: cell-based, human
[36] = test system: CCRF-CEM; assay: NCI in vitro five dose anticancer assay; type: cell-based, human
[37] = test system: RXF 393; assay: NCI in vitro five dose anticancer assay; type: cell-based, human
[38] = test system: SNB-75; assay: NCI in vitro five dose anticancer assay; type: cell-based, human
[39] = Non-small cell lung cancer, five dose assay
[40] = Ovarian cancer, five dose assay

Chain of PI3K-β (P42338 whole entry): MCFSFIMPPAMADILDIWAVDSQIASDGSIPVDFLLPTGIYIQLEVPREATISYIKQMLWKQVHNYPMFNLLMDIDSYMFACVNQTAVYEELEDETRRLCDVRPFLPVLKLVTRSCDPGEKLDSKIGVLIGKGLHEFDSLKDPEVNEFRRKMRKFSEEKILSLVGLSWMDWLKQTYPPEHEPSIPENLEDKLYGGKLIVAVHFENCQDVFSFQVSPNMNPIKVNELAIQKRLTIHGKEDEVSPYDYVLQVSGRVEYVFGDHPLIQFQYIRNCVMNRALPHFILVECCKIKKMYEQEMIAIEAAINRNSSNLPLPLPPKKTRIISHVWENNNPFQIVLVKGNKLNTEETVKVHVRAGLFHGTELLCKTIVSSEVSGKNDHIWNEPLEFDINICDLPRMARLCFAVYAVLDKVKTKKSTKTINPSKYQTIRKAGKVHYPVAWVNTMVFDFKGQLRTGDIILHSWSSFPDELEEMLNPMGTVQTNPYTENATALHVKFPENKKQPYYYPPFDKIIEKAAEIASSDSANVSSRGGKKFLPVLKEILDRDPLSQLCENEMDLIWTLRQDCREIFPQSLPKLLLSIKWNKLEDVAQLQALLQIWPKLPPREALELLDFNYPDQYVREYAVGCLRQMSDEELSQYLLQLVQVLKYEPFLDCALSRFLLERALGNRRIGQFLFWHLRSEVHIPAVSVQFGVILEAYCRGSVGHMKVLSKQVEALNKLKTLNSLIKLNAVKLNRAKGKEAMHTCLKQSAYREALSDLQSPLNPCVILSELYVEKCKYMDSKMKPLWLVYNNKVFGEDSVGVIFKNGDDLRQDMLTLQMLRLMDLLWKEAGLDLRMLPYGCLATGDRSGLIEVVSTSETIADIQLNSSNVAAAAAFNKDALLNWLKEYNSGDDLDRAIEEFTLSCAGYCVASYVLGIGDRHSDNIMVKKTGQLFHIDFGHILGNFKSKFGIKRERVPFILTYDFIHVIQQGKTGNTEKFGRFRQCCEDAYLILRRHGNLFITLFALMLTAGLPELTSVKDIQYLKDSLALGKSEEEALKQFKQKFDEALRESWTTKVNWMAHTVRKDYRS
Chain of PI3K-β (P27986 whole entry partner): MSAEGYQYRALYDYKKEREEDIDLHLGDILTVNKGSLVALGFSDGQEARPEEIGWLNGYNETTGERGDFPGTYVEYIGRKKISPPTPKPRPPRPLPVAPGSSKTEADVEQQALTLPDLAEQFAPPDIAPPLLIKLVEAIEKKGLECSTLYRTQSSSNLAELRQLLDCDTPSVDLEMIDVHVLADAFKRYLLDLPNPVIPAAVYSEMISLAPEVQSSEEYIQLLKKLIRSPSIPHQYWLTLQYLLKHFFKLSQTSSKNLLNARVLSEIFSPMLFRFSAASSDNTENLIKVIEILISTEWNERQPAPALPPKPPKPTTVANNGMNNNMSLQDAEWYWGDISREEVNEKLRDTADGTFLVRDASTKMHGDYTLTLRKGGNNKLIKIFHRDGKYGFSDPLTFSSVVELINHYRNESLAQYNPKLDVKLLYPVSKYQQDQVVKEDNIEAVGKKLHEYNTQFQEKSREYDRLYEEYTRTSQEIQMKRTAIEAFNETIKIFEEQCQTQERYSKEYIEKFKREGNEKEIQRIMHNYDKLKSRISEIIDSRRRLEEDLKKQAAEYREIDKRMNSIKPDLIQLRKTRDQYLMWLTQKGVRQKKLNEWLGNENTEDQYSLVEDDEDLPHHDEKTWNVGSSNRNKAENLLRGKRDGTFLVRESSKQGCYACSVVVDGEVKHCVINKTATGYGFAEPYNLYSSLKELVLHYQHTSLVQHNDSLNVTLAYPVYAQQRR

Work on Cc1ccc(-c2cc(C(=O)NN=C(/C=C\c3ccc(Cl)cc3)c3ccc(N)cc3)c3ccccc3n2)cc1 [Compound 9j, N’-((Z)-1-(4-Aminophenyl)-3-(4-chlorophenyl)allylidene)-2-(4-methylphenyl)quinoline-4-carbohydrazide] yielded a GI50 ([1]; Homo sapiens) of 3.46 µM, an inhibition at 10 µM ([2]; Homo sapiens, 60 cell, read-out: mean growth inhibition) of 74% and a GI50 ([3]; Homo sapiens) of 3.29 µM. It also gave a GI50 ([4]; Homo sapiens) of 4.19 µM, a GI50 ([5]; Homo sapiens) of 1 µM and a GI50 ([6]; Homo sapiens) of 2.53 µM. The GI50 ([7]; Homo sapiens) was 3.33 µM, the GI50 ([8]; Homo sapiens) was 5.02 µM and the GI50 ([9]; Homo sapiens) was 2.54 µM. It also gave a GI50 ([10]; Homo sapiens) of 4.1 µM, a GI50 ([11]; Homo sapiens, A549) of 4.79 µM and a GI50 ([12]; Homo sapiens) of 6.23 µM. The IC50 [13] was 360 nM, the GI50 ([14]; Homo sapiens) was 5.25 µM and the GI50 ([15]; Homo sapiens) was 4.71 µM. It also gave a GI50 ([16]; Homo sapiens) of 4 µM, a GI50 ([17]; Homo sapiens) of 33.7 µM and a GI50 ([18]; Homo sapiens) of 0.622 µM. The GI50 ([19]; Homo sapiens) was 3.23 µM, the GI50 ([20]; Homo sapiens) was 2.8 µM and the GI50 ([21]; Homo sapiens, 786-0) was 4.22 µM. The GI50 ([22]; Homo sapiens) was 2.43 µM, the GI50 ([23]; Homo sapiens, HCC 2998) was 4.28 µM and the “expression of wild type p53” value [24] was “upregulated”. For the same molecule, the “expression of Cdc2” value [24] was “attenuated”, the “expression of cyclin B1” value [24] was “attenuated” and the “expression of p21” value [24] was “significantly induced”. It also gave a GI50 ([25]; Homo sapiens) of 8.43 µM, a GI50 ([26]; Homo sapiens) of 3.81 µM and a GI50 ([27]; Homo sapiens, U-251) of 4.51 µM. It also gave a GI50 ([28]; Homo sapiens) of 3.99 µM, a GI50 ([29]; Homo sapiens) of 4.73 µM and a GI50 ([30]; Homo sapiens, MDA-MB-231) of 3.94 µM. For the same molecule, the IC50 [31] was 0.052 to 0.473 µM, the GI50 ([32]; Homo sapiens) was 3.51 µM and the GI50 ([33]; Homo sapiens) was 4.24 µM. The “percentage of cells in the G2/M phase” value ([34]; 1 μM) was 6.22%, the “percentage of cells in the G2/M phase” value ([34]; 3 μM) was 15.8% and the “percentage of cells in the G2/M phase” value ([34]; 6 μM) was 59.6%. It also gave a GI50 ([35]; Homo sapiens) of 8.51 µM, a GI50 ([36]; Homo sapiens) of 4.53 µM and a GI50 ([37]; Homo sapiens) of 1.63 µM. For the same molecule, the GI50 ([38]; Homo sapiens) was 1.41 µM.

Molecule COc1ccc(-c2cc(C(=O)NN=C(/C=C\c3ccc(Cl)cc3)c3ccc(N)cc3)c3ccccc3n2)cc1 [Compound 9i, N’-((Z)-1-(4-Aminophenyl)-3-(4-chlorophenyl)allylidene)-2-(4-methoxphenyl)quinoline-4-carbohydrazide] has a GI50 ([1]; Colon cancer, five dose assay) of 1.15 µM, a mean growth inhibition ([2]; 10 μM single dose, mean over NCI 60 cell lines) of 73.03% and a GI50 ([3]; Leukemia, five dose assay) of 0.595 µM. The GI50 ([4]; Renal cancer, five dose assay) was 1.47 µM, the GI50 ([5]; Melanoma, five dose assay) was 0.305 µM and the GI50 ([6]; Breast cancer, five dose assay) was 0.442 µM. For the same molecule, the GI50 ([7]; Colon cancer, five dose assay) was 1.03 µM, the GI50 [8, 39] was 3.14 µM and the GI50 [9, 40] was 0.519 µM. It also gave a GI50 [10, 39] of 1.92 µM, a GI50 ([11]; Non-small cell lung cancer, A549/ATCC, five dose assay) of 2.33 µM and a GI50 ([12]; Melanoma, five dose assay) of 3.78 µM. It also gave an IC50 ([13]; read-out: IC50 (nM) PI3K-β, ADP-Glo, ATP 30 μM) of 296 nM, a GI50 [14, 40] of 4.16 µM and a GI50 [15, 40] of 1.82 µM. The GI50 ([16]; Melanoma, five dose assay) was 1.56 µM, the GI50 ([17]; Melanoma, five dose assay) was over 100 µM and the GI50 [18, 39] was 0.307 µM. It also gave a GI50 ([19]; Leukemia, five dose assay) of 3.3 µM, a GI50 ([20]; Colon cancer, five dose assay) of 1.99 µM and a GI50 ([21]; Renal cancer, 786–0, five dose assay) of 1.84 µM. For the same molecule, the GI50 ([22]; CNS cancer, five dose assay) was 1.41 µM, the GI50 ([23]; Colon cancer, HCC-2998, five dose assay) was 3.4 µM and the “expression of wild type p53” value [24] was “upregulated”. The “expression of Cdc2” value [24] was “attenuated”, the “expression of cyclin B1” value [24] was “attenuated” and the “expression of p21” value [24] was “significantly induced”. For the same molecule, the GI50 [25, 40] was 5.51 µM, the GI50 ([26]; Melanoma, five dose assay) was 2.03 µM and the GI50 ([27]; CNS cancer, U251, five dose assay) was 2.18 µM. The GI50 [28, 39] was 3.78 µM, the GI50 [29, 39] was 6 µM and the GI50 ([30]; Breast cancer, MDA-MB231/ATCC, five dose assay) was 3.28 µM. The IC50 [31] was 0.052 to 0.473 µM, the GI50 [32, 39] was 1.89 µM and the GI50 ([33]; Colon cancer, five dose assay) was 1.24 µM. The “percentage of cells in the G2/M phase” value ([34]; 1 μM) was 11%, the “percentage of cells in the G2/M phase” value ([34]; 3 μM) was 61.2% and the “percentage of cells in the G2/M phase” value ([34]; 6 μM) was 76.2%. The GI50 ([35]; Renal cancer, five dose assay) was 52.3 µM, the GI50 ([36]; Leukemia, five dose assay) was 5.84 µM and the GI50 ([37]; Renal cancer, five dose assay) was 0.698 µM. The GI50 ([38]; CNS cancer, five dose assay) was 0.371 µM.
